Earlier results as cited in US20120141548A1, “NOVEL FORMULATION OF MELOXICAM” (FUNDACIONUNIVERSIDAD DEL NORTE, priority 2009, published 2012).

Tests used:
[1] = conventional meloxicam

Cc1cnc(NC(=O)C2=C(O)c3ccccc3S(=O)(=O)N2C)s1 [Meloxicam, meloxicam]
water solubility: poorly water soluble
Tmax [1]: 4 to 5 h
